Reference: BindingDB's records for doi:10.1021/jm00102a007 (University of South Florida, 1993)
pEC50: −log10 of the molar value.

Molecular target: T1, Adenosine receptor A1 (Cavia porcellus, UniProt P47745)
T1 sequence (P47745 whole entry): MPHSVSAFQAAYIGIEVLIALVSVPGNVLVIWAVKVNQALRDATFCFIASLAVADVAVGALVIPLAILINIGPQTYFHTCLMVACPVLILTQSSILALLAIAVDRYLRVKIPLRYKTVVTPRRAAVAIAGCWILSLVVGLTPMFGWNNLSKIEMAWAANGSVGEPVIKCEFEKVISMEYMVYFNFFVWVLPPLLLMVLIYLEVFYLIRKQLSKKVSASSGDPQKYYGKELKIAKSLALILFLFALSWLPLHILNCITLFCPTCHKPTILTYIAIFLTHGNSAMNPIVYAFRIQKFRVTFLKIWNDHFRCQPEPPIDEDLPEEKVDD
Assay: ChEBML_29278
Source text: In vitro prolonging of the stimulus-QRS interval in guinea pig heart.

**Q.** `CCCCCN=Nc1nc(N)c2ncn(C3O[C@H](CO)[C@@H](O)[C@H]3O)c2n1` (stereo partly specified) was tested. Which pEC50 did it give?
**A.** Its pEC50 is 4.60.
